Results taken from ChEMBL document CHEMBL2380212, “Synthesis, single crystal and antitumor activities of benzimidazole-quinazoline hybrids” (Bioorg Med Chem Lett, 2013).

Key:
Assay type in all cases: functional
T47D = experiment: Cytotoxicity against human T47D cells at 10 uM after 48 hrs by SRB assay; settings: read-out: GI
MCF7 = experiment: Cytotoxicity against human MCF7 cells at 10 uM after 48 hrs by SRB assay; settings: MCF7, 48 h, read-out: GI
MDA-MB-231 = experiment: Cytotoxicity against human MDA-MB-231 cells at 10 uM after 48 hrs by SRB assay; settings: MDA-MB-231, 48 h, read-out: GI
DU-145 = experiment: Cytotoxicity against human DU145 cells at 10 uM after 48 hrs by SRB assay; settings: DU-145, 48 h, read-out: GI
UO-31 = experiment: Cytotoxicity against human UO31 cells at 10 uM after 48 hrs by SRB assay; settings: UO-31, 48 h, read-out: GI
PC-3 = experiment: Cytotoxicity against human PC3 cells at 10 uM after 48 hrs by SRB assay; settings: PC-3, 48 h, read-out: GI
TK-10 = experiment: Cytotoxicity against human TK10 cells at 10 uM after 48 hrs by SRB assay; settings: TK-10, 48 h, read-out: GI
SN12C = experiment: Cytotoxicity against human SN12C cells at 10 uM after 48 hrs by SRB assay; settings: read-out: GI
CAKI-1 = experiment: Cytotoxicity against human Caki1 cells at 10 uM after 48 hrs by SRB assay; settings: CAKI-1, 48 h, read-out: GI
ACHN = experiment: Cytotoxicity against human ACHN cells at 10 uM after 48 hrs by SRB assay; settings: read-out: GI
786-0 = experiment: Cytotoxicity against human 786-0 cells at 10 uM after 48 hrs by SRB assay; settings: 786-0, 48 h, read-out: GI
SK-OV-3 = experiment: Cytotoxicity against human SKOV3 cells at 10 uM after 48 hrs by SRB assay; settings: SK-OV-3, 48 h, read-out: GI
NCI/ADR-RES = experiment: Cytotoxicity against human NCI/ADR-RES cells at 10 uM after 48 hrs by SRB assay; settings: read-out: GI
OVCAR-8 = experiment: Cytotoxicity against human OVCAR8 cells at 10 uM after 48 hrs by SRB assay; settings: OVCAR-8, 48 h, read-out: GI
OVCAR-4 = experiment: Cytotoxicity against human OVCAR4 cells at 10 uM after 48 hrs by SRB assay; settings: OVCAR-4, 48 h, read-out: GI
OVCAR-3 = experiment: Cytotoxicity against human OVCAR3 cells at 10 uM after 48 hrs by SRB assay; settings: OVCAR-3, 48 h, read-out: GI
IGROV-1 = experiment: Cytotoxicity against human IGROV1 cells at 10 uM after 48 hrs by SRB assay; settings: IGROV-1, 48 h, read-out: GI
UACC-62 = experiment: Cytotoxicity against human UACC62 cells at 10 uM after 48 hrs by SRB assay; settings: UACC-62, 48 h, read-out: GI
UACC-257 = experiment: Cytotoxicity against human UACC257 cells at 10 uM after 48 hrs by SRB assay; settings: UACC-257, 48 h, read-out: GI
SK-MEL-28 = experiment: Cytotoxicity against human SK-MEL-28 cells at 10 uM after 48 hrs by SRB assay; settings: SK-MEL-28, 48 h, read-out: GI
SK-MEL-5 = experiment: Cytotoxicity against human SK-MEL-5 cells at 10 uM after 48 hrs by SRB assay; settings: SK-MEL-5, 48 h, read-out: GI
MDA-MB-435 = experiment: Cytotoxicity against human MDA-MB-435 cells at 10 uM after 48 hrs by SRB assay; settings: MDA-MB-435, 48 h, read-out: GI
LOX IMVI = experiment: Cytotoxicity against human LOXIMVI cells at 10 uM after 48 hrs by SRB assay; settings: read-out: GI
SNB-19 = experiment: Cytotoxicity against human SNB19 cells at 10 uM after 48 hrs by SRB assay; settings: SNB-19, 48 h, read-out: GI
SF-295 = experiment: Cytotoxicity against human SF295 cells at 10 uM after 48 hrs by SRB assay; settings: SF-295, 48 h, read-out: GI
SF-539 = experiment: Cytotoxicity against human SF539 cells at 10 uM after 48 hrs by SRB assay; settings: SF-539, 48 h, read-out: GI
SF-268 = experiment: Cytotoxicity against human SF268 cells at 10 uM after 48 hrs by SRB assay; settings: SF-268, 48 h, read-out: GI
SW-620 = experiment: Cytotoxicity against human SW620 cells at 10 uM after 48 hrs by SRB assay; settings: SW-620, 48 h, read-out: GI
HCT-15 = experiment: Cytotoxicity against human HCT15 cells at 10 uM after 48 hrs by SRB assay; settings: HCT-15, 48 h, read-out: GI
HCC 2998 = experiment: Cytotoxicity against human HCC2998 cells at 10 uM after 48 hrs by SRB assay; settings: HCC 2998, 48 h, read-out: GI
COLO 205 = experiment: Cytotoxicity against human COLO205 cells at 10 uM after 48 hrs by SRB assay; settings: COLO 205, 48 h, read-out: GI
NCI-H522 = experiment: Cytotoxicity against human NCI-H522 cells at 10 uM after 48 hrs by SRB assay; settings: NCI-H522, 48 h, read-out: GI
NCI-H322M = experiment: Cytotoxicity against human NCI-H322M cells at 10 uM after 48 hrs by SRB assay; settings: read-out: GI
NCI-H226 = experiment: Cytotoxicity against human NCI-H226 cells at 10 uM after 48 hrs by SRB assay; settings: NCI-H226, 48 h, read-out: GI
HOP-62 = experiment: Cytotoxicity against human HOP62 cells at 10 uM after 48 hrs by SRB assay; settings: HOP-62, 48 h, read-out: GI
HOP-92 = experiment: Cytotoxicity against human HOP92 cells at 10 uM after 48 hrs by SRB assay; settings: HOP-92, 48 h, read-out: GI
[1] = Cytotoxicity against human EKVX cells at 10 uM after 48 hrs by SRB assay; settings: read-out: GI
A549 = experiment: Cytotoxicity against human A549 cells at 10 uM after 48 hrs by SRB assay; settings: A549, 48 h, read-out: GI
SR = experiment: Cytotoxicity against human SR cells at 10 uM after 48 hrs by SRB assay; settings: read-out: GI
MOLT-4 = experiment: Cytotoxicity against human MOLT4 cells at 10 uM after 48 hrs by SRB assay; settings: MOLT-4, 48 h, read-out: GI
RPMI-8226 = experiment: Cytotoxicity against human RPMI8226 cells at 10 uM after 48 hrs by SRB assay; settings: RPMI-8226, 48 h, read-out: GI
HL-60(TB) = experiment: Cytotoxicity against human HL-60(TB) cells at 10 uM after 48 hrs by SRB assay; settings: HL-60, 48 h, read-out: GI

C=CCn1c(C)nc2cc(Nc3nc(N4CCOCC4)nc4ccccc34)ccc21
inhibition of growth at 10 µM (T47D): < 10% | inhibition of growth at 10 µM (MCF7): < 10% | inhibition of growth at 10 µM (MDA-MB-231): < 10% | inhibition of growth at 10 µM (DU-145): < 10% | inhibition of growth at 10 µM (UO-31): < 10% | inhibition of growth at 10 µM (PC-3): 11.9% | inhibition of growth at 10 µM (TK-10): < 10% | inhibition of growth at 10 µM (SN12C): < 10% | inhibition of growth at 10 µM (CAKI-1): < 10% | inhibition of growth at 10 µM (ACHN): < 10% | inhibition of growth at 10 µM (786-0): < 10% | inhibition of growth at 10 µM (SK-OV-3): < 10% | inhibition of growth at 10 µM (NCI/ADR-RES): < 10% | inhibition of growth at 10 µM (OVCAR-8): < 10% | inhibition of growth at 10 µM (OVCAR-4): < 10% | inhibition of growth at 10 µM (OVCAR-3): < 10% | inhibition of growth at 10 µM (IGROV-1): < 10% | inhibition of growth at 10 µM (UACC-62): < 10% | inhibition of growth at 10 µM (UACC-257): < 10% | inhibition of growth at 10 µM (SK-MEL-28): < 10% | inhibition of growth at 10 µM (SK-MEL-5): < 10% | inhibition of growth at 10 µM (MDA-MB-435): < 10% | inhibition of growth at 10 µM (LOX IMVI): < 10% | inhibition of growth at 10 µM (SNB-19): < 10% | inhibition of growth at 10 µM (SF-295): < 10% | inhibition of growth at 10 µM (SF-539): < 10% | inhibition of growth at 10 µM (SF-268): < 10% | inhibition of growth at 10 µM (SW-620): < 10% | inhibition of growth at 10 µM (HCT-15): < 10% | inhibition of growth at 10 µM (HCC 2998): < 10% | inhibition of growth at 10 µM (COLO 205): < 10% | inhibition of growth at 10 µM (NCI-H522): < 10% | inhibition of growth at 10 µM (NCI-H322M): < 10% | inhibition of growth at 10 µM (NCI-H226): < 10% | inhibition of growth at 10 µM (HOP-62): < 10% | inhibition of growth at 10 µM (HOP-92): < 10% | inhibition of growth at 10 µM [1]: < 10% | inhibition of growth at 10 µM (A549): < 10% | inhibition of growth at 10 µM (SR): < 10% | inhibition of growth at 10 µM (MOLT-4): < 10% | inhibition of growth at 10 µM (RPMI-8226): 13.4% | inhibition of growth at 10 µM (HL-60(TB)): 13.5%

C=CCn1c(C)nc2ccc(Nc3nc(N4CCCC4)nc4ccccc34)cc21
inhibition of growth at 10 µM (T47D): < 10% | inhibition of growth at 10 µM (MCF7): 38.1% | inhibition of growth at 10 µM (MDA-MB-231): 58% | inhibition of growth at 10 µM (DU-145): 26.2% | inhibition of growth at 10 µM (UO-31): 31.9% | inhibition of growth at 10 µM (PC-3): < 10% | inhibition of growth at 10 µM (TK-10): < 10% | inhibition of growth at 10 µM (SN12C): < 10% | inhibition of growth at 10 µM (CAKI-1): 15% | inhibition of growth at 10 µM (ACHN): < 10% | inhibition of growth at 10 µM (786-0): 24% | inhibition of growth at 10 µM (SK-OV-3): < 10% | inhibition of growth at 10 µM (NCI/ADR-RES): 16.7% | inhibition of growth at 10 µM (OVCAR-8): 15.9% | inhibition of growth at 10 µM (OVCAR-4): < 10% | inhibition of growth at 10 µM (OVCAR-3): < 10% | inhibition of growth at 10 µM (IGROV-1): < 10% | inhibition of growth at 10 µM (UACC-62): < 10% | inhibition of growth at 10 µM (UACC-257): < 10% | inhibition of growth at 10 µM (SK-MEL-28): 19.8% | inhibition of growth at 10 µM (SK-MEL-5): 37.6% | inhibition of growth at 10 µM (MDA-MB-435): < 10% | inhibition of growth at 10 µM (LOX IMVI): 97.5% | inhibition of growth at 10 µM (SNB-19): < 10% | inhibition of growth at 10 µM (SF-295): 16.3% | inhibition of growth at 10 µM (SF-539): < 10% | inhibition of growth at 10 µM (SF-268): 13.1% | inhibition of growth at 10 µM (SW-620): 24.9% | inhibition of growth at 10 µM (HCT-15): 20.6% | inhibition of growth at 10 µM (HCC 2998): 76.6% | inhibition of growth at 10 µM (COLO 205): < 10% | inhibition of growth at 10 µM (NCI-H522): < 10% | inhibition of growth at 10 µM (NCI-H322M): < 10% | inhibition of growth at 10 µM (NCI-H226): < 10% | inhibition of growth at 10 µM (HOP-62): < 10% | inhibition of growth at 10 µM (HOP-92): 18.6% | inhibition of growth at 10 µM [1]: < 10% | inhibition of growth at 10 µM (A549): 25.4% | inhibition of growth at 10 µM (SR): 94.2% | inhibition of growth at 10 µM (MOLT-4): 50% | inhibition of growth at 10 µM (RPMI-8226): 45% | inhibition of growth at 10 µM (HL-60(TB)): 11.5%
